Laboratory results: paper PMC5410289, “Stable H3 peptide was delivered by gold nanorods to inhibit LSD1 activation and induce human mesenchymal stem cells differentiation” (Oncotarget, 2017)

System: human BMSCs
Assay: RT-PCR of stemness, differentiation and hepatic marker genes in human BMSCs
Type: cell-based
Settings: human MSCs, GAPDH as normalization, treated 2, 7 and 14 days, combination effect seen during 7 days
Procedure: The human BMSCs were treated with PBS as control, AuNRs, AuNRs-SP nanocomplex, HGF alone and AuNRs-SP nanocomplex+HGF respectively for 2 days, 7 days and 14 days (Figure 7). Consequently, the expression of stemness gene Oct4, differentiation gene Sox17 and two hepatic marker genes, AFP and ck19 in the human MSCs were analyzed by RT-PCR. Comparing with PBS-treated group and AuNRs-treated group, human MSCs were induced to differentiate by AuNRs-SP nanocomplex with the decreased Oct4 and increased Sox17 (Figure 7A and 7B).
After human BMSCs were treated with PBS, AuNRs, HGF, AuNRs-SP and AuNRs-SP+HGF for 14 days, total RNA was extracted using TRIzol (Invitrogen, Carlsbad, CA, USA) and was quantitated by Nano Drop 2000. 2 μg total RNA was reverse transcribed to cDNA using a reverse transcriptase kit (Takara, Japan) according to the manufacturer's instructions. The mRNA levels of the target genes were quantified by RT-PCR, using GAPDH as normalization. Primers used in this study: Oct4 forward 5′-GACAACAATGAGAACCTTCAG-3′ and reverse 5′-CTGGCGCCGGTTACAGAACCA-3′; Sox17 forward 5′-GAGCCAAGGGCGAGTCCCGTA-3′ and reverse 5′-CCTTCCACGACTTGCCCAGCA-3′; AFP forward 5′-AGCGAGGAGAAATGGTCCGG-3′ and reverse 5′-GGA CAT CTT CAC CAT GTG-3′; Ck19 forward 5′-GCACTACAGCCACTACTACAC-3′ and reverse 5′-CTC ATG CGC AGA GCC TGT-3′.

HGF: hepatocyte growth factor
expression of hepatic marker gene AFP (mRNA): could not change the expression of AFP and ck19 until 14 days
expression of hepatic marker gene ck19 (mRNA): could not change the expression of AFP and ck19 until 14 days
